Values of other authors, collected in patent publication US6831088B2, “3-heterocyclypropanohydroxamic acid PCP inhibitors” (Pfizer Inc., priority 2001, dated 2004).
Read-outs that look alike come from different tables or passages of the source.

Tested on: PCP

## [Cl-].[Na+] [NaCl]
0.2M NaCl
  activity of PCP relative to that observed with the standard assay concentration of 0.15M: 66%
0.3M NaCl
  activity of PCP relative to that observed with the standard assay concentration of 0.15M: 38%
0.5M NaCl
  activity of PCP relative to that observed with the standard assay concentration of 0.15M: 25%
